Assay [1] has as its target T1, SARS-CoV-2 PLpro (nsp3 1564–1878) (Severe acute respiratory syndrome coronavirus 2, UniProt P0DTD1). Description: biochemical. The arrangement: FRET-quenched peptide (Pro3) cleavage by PLpro, 10 min pre-incubation, slope over 20 min, normalised to no-compound control. The following applies: low concentration screen, read-out: % of control remaining.
Assay [2] deals with T1, SARS-CoV-2 PLpro (nsp3 1564–1878). Briefly: biochemical. The arrangement: FRET-quenched peptide (Pro3) cleavage by PLpro, 10 min pre-incubation, slope over 20 min, normalised to no-compound control. To be noted: high concentration screen, read-out: % of control remaining.

Counter-ions that a name gives are not always drawn. Like-named read-outs stand apart in the source and are kept apart here.

For `N[C@@H](C(=O)N[C@@H]1C(=O)N2C(C(=O)O)=C(Cl)CS[C@H]12)c1ccccc1` [Cefaclor], the remaining activity at 1.25 µM in assay [1] (Well no.=88) was 99.7%. Moreover, the remaining activity at 3.75 µM in assay [2] (Well no.=88) was 101%.

On to `O=c1[nH]c(=O)n([C@H]2C[C@H](O)[C@@H](CO)O2)cc1Cl` [5-Chloro-2'-deoxyuridine], for which the remaining activity at 1.25 µM in assay [1] (Well no.=7814) stood at 101%. For the same compound, the remaining activity at 3.75 µM in assay [2] (Well no.=7814) came out at 102%.

Consider `C[C@H]1CCC/C=C/[C@@H]2C[C@H](O)C[C@H]2[C@H](O)/C=C/C(=O)O1` [Brefeldin A], for which the remaining activity at 1.25 µM in assay [1] (Well no.=3093) was found to be 101%. Further, in assay [2] (Well no.=3093), the remaining activity at 3.75 µM turned out to be 100%.

For the compound `CCN(CC)CC(=O)Nc1c(C)cccc1C` [Lidocaine hydrochloride], the remaining activity at 1.25 µM in assay [1] (Well no.=883) amounted to 104%. Also, the remaining activity at 3.75 µM in assay [2] (Well no.=883) came out at 108%.

With `C[C@@H]([C@@H](O)c1ccc(O)cc1)N1CCC(O)(c2ccccc2)CC1` [CP-101606 mesylate], the remaining activity at 1.25 µM in assay [1] (Well no.=5955) was determined as 98.1%. Besides, the remaining activity at 3.75 µM in assay [2] (Well no.=5955) came out at 98.9%.

On to `O=C(O)c1ncccc1O` [3-Hydroxypicolinic acid], for which the remaining activity at 1.25 µM in assay [1] (Well no.=6885) was 68.8%. Further, the remaining activity at 3.75 µM in assay [2] (Well no.=6885) came out at 92.3%.

As for `C[C@@H]1CCN(C(=O)CC#N)C[C@@H]1N(C)c1ncnc2[nH]ccc12` [Tofacitinib citrate], the remaining activity at 1.25 µM in assay [1] (Well no.=5551) was 98.9%. The remaining activity at 3.75 µM in assay [2] (Well no.=5551) was 109%.

Turning to `Cc1nc2c([nH]1)c(=O)n(C)c(=O)n2Cc1ccco1` [Furafylline], the remaining activity at 1.25 µM in assay [1] (Well no.=665) was 95.4%; in assay [1] (Well no.=1544) it was 97.6%. Further, the remaining activity at 3.75 µM turned out to be 92.2% in assay [2] (Well no.=665) and 100% in assay [2] (Well no.=1544).

Turning to `CC(C)(N)C(=O)N[C@H](COCc1ccccc1)C(=O)N1CCC2(CC1)CN(S(C)(=O)=O)c1ccccc12` [Ibutamoren (Mesylate)], the remaining activity at 1.25 µM in assay [1] (Well no.=6186) came to 98.5%. In addition, the remaining activity at 3.75 µM in assay [2] (Well no.=6186) was 94.2%.

With `CN(C)CCC[C@@]1(c2ccc(F)cc2)OCc2cc(C#N)ccc21` [Escitalopram], the remaining activity at 1.25 µM in assay [1] (Well no.=1880) stood at 95.4%. In addition, the remaining activity at 3.75 µM in assay [2] (Well no.=1880) was 94.3%.

Consider `CN1CCC2=C(C1)c1ccccc1Cc1ccccc12` [Setiptiline], for which the remaining activity at 1.25 µM in assay [1] (Well no.=6857) came out at 98.8%. Moreover, in assay [2] (Well no.=6857), the remaining activity at 3.75 µM came to 94.5%.

On to `CCOC(=O)Oc1c(OC)cc(C(=O)O[C@@H]2C[C@@H]3CN4CCc5c([nH]c6cc(OC)ccc56)[C@H]4C[C@@H]3[C@H](C(=O)OC)[C@H]2OC)cc1OC` [Syrosingopine], for which the remaining activity at 1.25 µM in assay [1] (Well no.=3310) stood at 100%. Moreover, the remaining activity at 3.75 µM in assay [2] (Well no.=3310) was found to be 98.6%.

For the compound `N=C(N)NC(=O)c1nc(Cl)c(N)nc1N` [Amiloride hydrochloride], in assay [1] (Well no.=148), the remaining activity at 1.25 µM turned out to be 96.9%. Besides, the remaining activity at 3.75 µM in assay [2] (Well no.=148) was 94.6%.

For `Nc1nccc(-c2c(-c3ccc(F)cc3)ncn2C2CCNCC2)n1` [SB220025], the remaining activity at 1.25 µM in assay [1] (Well no.=2604) came to 99.6%. The remaining activity at 3.75 µM in assay [2] (Well no.=2604) was found to be 99.7%.

Regarding `CC(c1cc2ccccc2s1)N(O)C(N)=O` (stereo not drawn) [Zileuton], the remaining activity at 1.25 µM in assay [1] (Well no.=1764) was 102%. For the same compound, the remaining activity at 3.75 µM in assay [2] (Well no.=1764) came out at 100%.

`Cc1ccc(Nc2nccc(N(C)c3ccc4c(C)n(C)nc4c3)n2)cc1S(N)(=O)=O` [Pazopanib]: in assay [1] (Well no.=2841), the remaining activity at 1.25 µM stood at 103%. Also, the remaining activity at 3.75 µM in assay [2] (Well no.=2841) was 103%.

With `CCC1(c2cccc(O)c2)CCCCN(C)C1` (stereo not drawn) [Meptazinol HCl], the remaining activity at 1.25 µM in assay [1] (Well no.=4636) turned out to be 93.5%. Besides, the remaining activity at 3.75 µM in assay [2] (Well no.=4636) is 90.6%.

Consider `CC(C)(C)c1ccc(S(=O)(=O)/C=C/C#N)cc1` [Bay 11-7085], for which the remaining activity at 1.25 µM in assay [1] (Well no.=127) turned out to be 105%. Also, the remaining activity at 3.75 µM in assay [2] (Well no.=127) was 105%.

For `CC(=O)CCC(=O)O` [Levulinic acid], in assay [1] (Well no.=6545), the remaining activity at 1.25 µM was 101%. Further, the remaining activity at 3.75 µM in assay [2] (Well no.=6545) stood at 98%.

`CCc1c2c(nc3ccc(OC(=O)N4CCC(N5CCCCC5)CC4)cc13)-c1cc3c(c(=O)n1C2)COC(=O)[C@]3(O)CC` [Irinotecan]: the remaining activity at 1.25 µM in assay [1] (Well no.=5099) stood at 99.6%. For the same compound, the remaining activity at 3.75 µM in assay [2] (Well no.=5099) was 98.8%.

As to `CN(C)CCOc1ccc(-c2nc(-c3ccncc3)c(-c3ccc4c(c3)CC/C4=N\O)[nH]2)cc1` [SB590885], the remaining activity at 1.25 µM in assay [1] (Well no.=2749) worked out at 101%. Moreover, the remaining activity at 3.75 µM in assay [2] (Well no.=2749) stood at 99.9%.

Regarding `COCCCN1CCC(NC(=O)c2cc(Cl)c(N)c3c2OCC3)CC1` [Prucalopride], the remaining activity at 1.25 µM stood at 99.7% in assay [1] (Well no.=4835) and 103% in assay [1] (Well no.=8143). For the same compound, the remaining activity at 3.75 µM in assay [2] (Well no.=4835) came out at 98.1%; in assay [2] (Well no.=8143), 101%.

On to `CC(=O)c1c(C)c2cnc(Nc3ccc(N4CCNCC4)cn3)nc2n(C2CCCC2)c1=O` [Palbociclib (isethionate)], for which the remaining activity at 1.25 µM in assay [1] (Well no.=7316) was 103%. In addition, the remaining activity at 3.75 µM in assay [2] (Well no.=7316) was found to be 103%.

`CCCc1nn(C)c2c(=O)[nH]c(-c3cc(S(=O)(=O)N4CCN(C)CC4)ccc3OCC)nc12` [Sildenafil Mesylate]: the remaining activity at 1.25 µM in assay [1] (Well no.=8206) came out at 106%. Also, the remaining activity at 3.75 µM in assay [2] (Well no.=8206) was found to be 103%.

With `CCCN(CCC)CCc1cccc2c1CC(=O)N2` [Ropinirole (hydrochloride)], the remaining activity at 1.25 µM in assay [1] (Well no.=8205) turned out to be 99.3%. The remaining activity at 3.75 µM in assay [2] (Well no.=8205) was 90.6%.

`C/C=C/C[C@@H](C)C(=O)[C@H]1C(=O)N[C@@H](C(C)C)C(=O)N(C)CC(=O)N(C)[C@@H](CC(C)C)C(=O)N[C@@H](C(C)C)C(=O)N(C)[C@@H](CC(C)C)C(=O)N[C@@H](C)C(=O)N[C@H](C)C(=O)N(C)[C@@H](CC(C)C)C(=O)N(C)[C@@H](CC(C)C)C(=O)N(C)[C@@H](C(C)C)C(=O)N1C` [Valspodar]: the remaining activity at 1.25 µM in assay [1] (Well no.=8226) was 94.7%. For the same compound, the remaining activity at 3.75 µM in assay [2] (Well no.=8226) is 94.7%.

Consider `C#C[C@]1(O)CC[C@H]2[C@@H]3CCC4=Cc5oncc5C[C@]4(C)[C@H]3CC[C@@]21C` [Danazol], for which the remaining activity at 1.25 µM in assay [1] (Well no.=584) was 94.6%; in assay [1] (Well no.=1942), 105%. Besides, the remaining activity at 3.75 µM in assay [2] (Well no.=584) stood at 97%; in assay [2] (Well no.=1942), 106%.

`CO[C@@H](C(=O)N1Cc2[nH]nc(NC(=O)c3ccc(N4CCN(C)CC4)cc3)c2C1)c1ccccc1` [Danusertib (PHA-739358)]: the remaining activity at 1.25 µM in assay [1] (Well no.=5045) was 103%. Also, the remaining activity at 3.75 µM in assay [2] (Well no.=5045) amounted to 106%.

As for `O=C1/C(=C/c2ccc(O)c(O)c2)Oc2c1ccc(O[C@@H]1O[C@H](CO)[C@@H](O)[C@H](O)[C@H]1O)c2O` [Maritimein], in assay [1] (Well no.=3339), the remaining activity at 1.25 µM turned out to be 91.1%. Also, in assay [2] (Well no.=3339), the remaining activity at 3.75 µM stood at 97.6%.

Regarding `O=c1ccc2ccc(OCCCCN3CCN(c4cccc5sccc45)CC3)cc2[nH]1` [Brexpiprazole], the remaining activity at 1.25 µM in assay [1] (Well no.=6473) was 99.5%. In addition, the remaining activity at 3.75 µM in assay [2] (Well no.=6473) turned out to be 98.1%.

(Values after publication PMC8286840, “Identifying SARS-CoV-2 antiviral compounds by screening for small molecule inhibitors of Nsp3 papain-like protease” (Biochemical Journal, 2021).)
